# Experimental data reported in US20260070924A1, “INDAZOLE MACROCYCLES AND THEIR USE” (BLOSSOMHILL THERAPEUTICS, INC., priority 2022, published 2026).
# Columns and labels:
# phospho-FLT3 (Y589/Y591) = phospho-FLT3 (Y589/Y591) (Homo sapiens, UniProt P36888, INS600FREYEYD); assay: Inhibition of kinase phosphorylation by Western Blot in MOLM-13; assay type: cell-based; settings: MOLM-13 cells, 4 hour-incubation; read-out: pFLT3 MOLM-13 IC50
# FLT3-autoinhibited = FLT3-autoinhibited (Homo sapiens (Human), UniProt P36888); assay: KINOMEscan binding assay (Eurofins DiscoveRx)
# Method: (§1) For most kinases, kinase-tagged T7 phage strains were prepared in an E. coli host derived from the BL21 strain. E. coli were grown to log-phase and infected with T7 phage and incubated with shaking at 32° C. until lysis. The lysates were centrifuged and filtered to remove cell debris. The remaining kinases were produced in HEK-293 cells and subsequently tagged with DNA for qPCR detection. Streptavidin-coated magnetic beads were treated with biotinylated small molecule ligands for 30 minutes at room temperature to generate affinity resins for kinase assays. The liganded beads were blocked with excess biotin and washed with blocking buffer (SeaBlock (Pierce), 1% BSA, 0.05% Tween 20, 1 mM DTT) to remove unbound ligand and to reduce non-specific binding. […] Test compounds were prepared as 111× stocks in 100% DMSO. Kds were determined using an 11-point 3-fold compound dilution series with three DMSO control points. […] The compounds were then diluted directly into the assays such that the final concentration of DMSO was 0.9%. All reactions performed in polypropylene 384-well plate. Each was a final volume of 0.02 ml. […] The kinase concentration in the eluates was measured by qPCR. Binding constants (Kds) were calculated with a standard dose-response curve using a non-linear least square fit with the Levenberg-Marquardt algorithm.
# FLT3 (D835Y) = FLT3 (D835Y) (Homo sapiens (Human), UniProt P36888, D835Y); assay: KINOMEscan binding assay (Eurofins DiscoveRx)
# Method: as §1
# FLT3 = FLT3 (Homo sapiens (Human), UniProt P36888); assay: KINOMEscan binding assay (Eurofins DiscoveRx)
# Method: as §1
# FLT3 (ITD, F691L) = assay: KINOMEscan binding assay (Eurofins DiscoveRx)
# Method: as §1
# FLT3 (N841I) = FLT3 (N841I) (Homo sapiens (Human), UniProt P36888, N841I); assay: KINOMEscan binding assay (Eurofins DiscoveRx)
# Method: as §1
# FLT3 (D835H) = FLT3 (D835H) (Homo sapiens (Human), UniProt P36888, D835H); assay: KINOMEscan binding assay (Eurofins DiscoveRx)
# Method: as §1
# FLT3 (R834Q) = FLT3 (R834Q) (Homo sapiens (Human), UniProt P36888, R834Q); assay: KINOMEscan binding assay (Eurofins DiscoveRx)
# Method: as §1
# FLT3 (ITD) = assay: KINOMEscan binding assay (Eurofins DiscoveRx)
# Method: as §1
# FLT3 (ITD, D835V) = assay: KINOMEscan binding assay (Eurofins DiscoveRx)
# Method: as §1
# MV-4-11 cells = assay: MV-4-11 cell proliferation assay (CellTiter-Glo 2.0); assay type: cell-based; settings: MV-4-11, 384-well, 11-dose dilution series; read-out: IC50, inhibition of MV-4-11 cell proliferation
# Method: MV-4-11 cell line was purchased from ATCC and maintained in RPMI medium supplemented with 10% fetal bovine serum and 100 U/mL of penicillin/streptomycin. One thousand MV-4-11 cells/50 μl per well were seeded in white 384-well plate, followed by treatment with indicated compounds in a 11-dose dilution series. Cell proliferation was measured using CellTiter-Glo 2.0 luciferase-based ATP detection assay (Promega, Madison, WI) following the manufacturer's protocol. Plates were then read on a TECAN Sparks multimode microplate reader. Data was analyzed using GraphPad Prism 9 (GraphPad Software, San Diego, CA) to obtain IC50 values.
# LS180 = assay: Cell proliferation panel (CellTiter-Glo 2.0, 5 days); assay type: cell-based; settings: Colorectal adenocarcinoma
# Method: (§2) Cell proliferation assay was carried out in a panel of 108 cell lines. 1000 (attached cells) or 3000 (suspension cells) cells/100 μl per well were seeded in 96 well black plate with a clear bottom (Corning #3904). Compounds were added using Tecan D300e Digital Dispenser in 1:3 titration for 9 doses. Plates were incubated for 5 days at 37° C. and 5% CO2. Cell proliferation was measured using CellTiter-Glo 2.0 luciferase-based ATP detection assay (Promega, Madison, WI) at 50 μl per well following the manufacturer's protocol. Plates were then read on a TECAN Sparks multimode microplate reader. Data was analyzed using GraphPad Prism 9 (GraphPad Software, San Diego, CA) to obtain IC50 values. IC50 values were determined using Prism software (GraphPad Software, San Diego, CA).
# H1573 = assay: as above; assay type: cell-based; settings: Lung adenocarcinoma NSCLC
# Method: as §2
# MIAPaCa-2 = assay: as above; assay type: cell-based; settings: Pancreatic carcinoma
# Method: as §2
# A549 = assay: as above; assay type: cell-based; settings: Lung carcinoma, NSCLC
# Method: as §2
# NB-1 = assay: as above; assay type: cell-based; settings: Neuroblastoma
# Method: as §2
# CLK4 = CLK4 (Homo sapiens (Human), UniProt Q9HAZ1); assay: CLK kinase activity assay (ADP-Glo); assay type: biochemical
# Method: (§3) Kinase protein and substrate were pre-diluted in the HEPES assay buffer (100 mM HEPES, pH 7.5, 0.01% Triton X-100, 0.1% BSA, 5 mM MgCl2, 1 mM DTT, 10 μM Sodium Orthovanadate, 10 μM Beta-Glycerophosphate) dispensed into 384 well plate (5 μL per well). Control samples (0%-inhibition in the absence of inhibitor, DMSO only) and 100%-inhibition (in the absence of enzyme) were assembled in replicates of six and were used to calculate %-inhibition in the presence of compounds. Test compounds were added to the protein samples by acoustic dispensing (Labcyte Echo550). Concentration of DMSO was equalized to 1% in all samples. Reactions were initiated by addition of ATP by acoustic dispensing (Labcyte Echo550) and incubated according to assay specific incubation time. After incubation, 5 uL of Promega ADP-Glo reagent was added and incubated for 40 minutes. After 40 minutes, 10 uL of Promega kinase detection reagent was added. After 10 min of incubation with Kinase detection reagent, the luminescence was read on microplate reader (Biotek Synergy).
# CLK2 = CLK2 (Homo sapiens (Human), UniProt P49760); assay: CLK kinase activity assay (ADP-Glo); assay type: biochemical
# Method: as §3
# CLK1 = CLK1 (Homo sapiens (Human), UniProt P49759); assay: CLK kinase activity assay (ADP-Glo); assay type: biochemical
# Method: as §3
# CLK3 = CLK3 (Homo sapiens (Human), UniProt P49761); assay: CLK kinase activity assay (ADP-Glo); assay type: biochemical
# Method: as §3
# CLK1, sequence (P49759 whole entry): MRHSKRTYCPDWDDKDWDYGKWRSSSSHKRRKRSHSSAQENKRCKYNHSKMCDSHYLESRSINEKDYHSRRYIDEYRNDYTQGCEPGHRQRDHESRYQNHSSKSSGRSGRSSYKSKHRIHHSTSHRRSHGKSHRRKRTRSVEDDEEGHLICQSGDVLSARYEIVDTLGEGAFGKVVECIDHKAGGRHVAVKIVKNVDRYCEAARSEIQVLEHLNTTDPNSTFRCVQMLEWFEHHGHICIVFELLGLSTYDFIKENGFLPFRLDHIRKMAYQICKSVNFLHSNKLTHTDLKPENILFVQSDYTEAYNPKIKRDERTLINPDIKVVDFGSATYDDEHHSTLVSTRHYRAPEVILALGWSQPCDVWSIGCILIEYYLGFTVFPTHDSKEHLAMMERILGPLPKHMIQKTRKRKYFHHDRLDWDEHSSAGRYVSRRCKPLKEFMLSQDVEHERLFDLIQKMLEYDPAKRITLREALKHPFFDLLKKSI
# CLK3, sequence (P49761 whole entry): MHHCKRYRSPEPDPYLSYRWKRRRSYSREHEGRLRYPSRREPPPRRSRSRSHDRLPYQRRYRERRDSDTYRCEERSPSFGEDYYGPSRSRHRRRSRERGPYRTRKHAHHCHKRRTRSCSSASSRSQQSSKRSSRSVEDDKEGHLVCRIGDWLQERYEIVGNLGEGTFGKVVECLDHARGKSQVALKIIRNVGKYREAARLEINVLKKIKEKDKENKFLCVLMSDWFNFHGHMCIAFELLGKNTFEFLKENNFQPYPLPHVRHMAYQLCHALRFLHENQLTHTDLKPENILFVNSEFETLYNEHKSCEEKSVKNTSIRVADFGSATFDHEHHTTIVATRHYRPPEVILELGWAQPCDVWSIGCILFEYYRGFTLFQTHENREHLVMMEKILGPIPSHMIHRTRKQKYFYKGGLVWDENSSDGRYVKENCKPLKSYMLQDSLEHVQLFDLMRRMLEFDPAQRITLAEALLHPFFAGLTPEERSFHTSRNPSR
# CLK2, sequence (P49760 whole entry): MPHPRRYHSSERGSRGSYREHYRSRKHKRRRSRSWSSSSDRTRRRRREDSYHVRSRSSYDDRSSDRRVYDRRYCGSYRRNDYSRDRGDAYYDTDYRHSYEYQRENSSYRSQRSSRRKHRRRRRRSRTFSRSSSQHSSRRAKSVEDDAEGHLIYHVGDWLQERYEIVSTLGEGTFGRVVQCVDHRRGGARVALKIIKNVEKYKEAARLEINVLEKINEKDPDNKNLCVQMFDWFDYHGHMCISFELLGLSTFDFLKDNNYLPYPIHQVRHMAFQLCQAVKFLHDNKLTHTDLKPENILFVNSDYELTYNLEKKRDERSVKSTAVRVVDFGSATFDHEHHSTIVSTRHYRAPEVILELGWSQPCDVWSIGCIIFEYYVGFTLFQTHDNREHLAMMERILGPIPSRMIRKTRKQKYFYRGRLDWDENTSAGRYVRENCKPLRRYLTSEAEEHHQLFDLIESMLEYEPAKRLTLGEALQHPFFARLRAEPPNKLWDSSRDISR
# CLK4, sequence (Q9HAZ1 whole entry): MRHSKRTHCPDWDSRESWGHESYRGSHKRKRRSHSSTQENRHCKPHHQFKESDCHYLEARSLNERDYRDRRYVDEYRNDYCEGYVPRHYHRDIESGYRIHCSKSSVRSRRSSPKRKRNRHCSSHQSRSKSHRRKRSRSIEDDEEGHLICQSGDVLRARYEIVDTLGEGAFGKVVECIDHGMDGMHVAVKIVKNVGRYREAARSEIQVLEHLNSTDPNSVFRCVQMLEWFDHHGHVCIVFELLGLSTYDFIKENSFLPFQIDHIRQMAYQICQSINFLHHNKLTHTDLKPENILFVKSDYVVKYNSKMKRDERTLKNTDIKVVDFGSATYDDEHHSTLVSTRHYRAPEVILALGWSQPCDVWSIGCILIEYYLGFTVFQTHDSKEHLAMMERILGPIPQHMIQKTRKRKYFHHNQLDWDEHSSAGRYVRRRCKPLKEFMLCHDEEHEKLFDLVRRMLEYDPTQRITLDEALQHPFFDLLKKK
structure (smiles),measurement,setting,value
"CCc1nn(C)c2c1/C=C/c1n[nH]c3ccc(cc13)-c1cnn(C)c1OCCN(C)C2=O [Ex. 6, (17E)-16-ethyl-8,12,14-trimethyl-2,11,12,14-tetrahydro-8H-3,5-ethenotripyrazolo[3,4-f:3′,4′-j:4″,3″-n][1,4]oxazacyclopentadecin-13(10H)-one]",IC50,phospho-FLT3 (Y589/Y591),0.32 nM
same,Kd,FLT3-autoinhibited,9.1 nM
same,Kd,FLT3 (D835Y),4.1 nM
same,Kd,FLT3,0.18 nM
same,Kd,"FLT3 (ITD, F691L)",0.23 nM
same,Kd,FLT3 (N841I),2.2 nM
same,Kd,FLT3 (D835H),67 nM
same,Kd,FLT3 (R834Q),0.89 nM
same,Kd,FLT3 (ITD),6.3 nM
same,Kd,"FLT3 (ITD, D835V)",0.058 nM
same,IC50,MV-4-11 cells,0.3 nM
same,IC50,LS180,82.7 nM
same,IC50,H1573,80.6 nM
same,IC50,MIAPaCa-2,53.2 nM
same,IC50,A549,67.7 nM
same,IC50,NB-1,45 nM
same,IC50,CLK4,0.446 nM
same,IC50,CLK2,0.165 nM
same,IC50,CLK1,0.134 nM
same,IC50,CLK3,5.87 nM
